Blank lines part the entries; values can stand above or below the compound they belong to.
Assays:
[1] = target: T1, 5-hydroxytryptamine receptor 3A (Rattus norvegicus, UniProt P35563); assay: Displacement of [3H]LY278584 from 5HT3 receptor in rat cortical homogenate
T1 sequence (P35563 whole entry): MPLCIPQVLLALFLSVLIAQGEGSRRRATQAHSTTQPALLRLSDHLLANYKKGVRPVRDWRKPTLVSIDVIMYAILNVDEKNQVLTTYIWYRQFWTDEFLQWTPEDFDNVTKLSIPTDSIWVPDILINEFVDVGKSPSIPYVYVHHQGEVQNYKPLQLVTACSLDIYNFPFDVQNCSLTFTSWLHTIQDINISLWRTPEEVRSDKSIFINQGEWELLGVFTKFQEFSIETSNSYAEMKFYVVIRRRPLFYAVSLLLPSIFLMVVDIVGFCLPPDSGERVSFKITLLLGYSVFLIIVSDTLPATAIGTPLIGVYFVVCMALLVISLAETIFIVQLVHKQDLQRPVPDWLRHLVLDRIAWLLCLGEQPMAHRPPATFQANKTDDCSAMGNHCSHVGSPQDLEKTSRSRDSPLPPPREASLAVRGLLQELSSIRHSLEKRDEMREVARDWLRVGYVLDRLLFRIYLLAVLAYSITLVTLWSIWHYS

[2] = target: T2, 5-hydroxytryptamine receptor 1A (Rattus norvegicus, UniProt P19327); assay: Displacement of [3H]8-OHDPAT from 5HT1A receptor in rat hippocampus; assay type: tissue-based
T2 sequence (P19327 whole entry): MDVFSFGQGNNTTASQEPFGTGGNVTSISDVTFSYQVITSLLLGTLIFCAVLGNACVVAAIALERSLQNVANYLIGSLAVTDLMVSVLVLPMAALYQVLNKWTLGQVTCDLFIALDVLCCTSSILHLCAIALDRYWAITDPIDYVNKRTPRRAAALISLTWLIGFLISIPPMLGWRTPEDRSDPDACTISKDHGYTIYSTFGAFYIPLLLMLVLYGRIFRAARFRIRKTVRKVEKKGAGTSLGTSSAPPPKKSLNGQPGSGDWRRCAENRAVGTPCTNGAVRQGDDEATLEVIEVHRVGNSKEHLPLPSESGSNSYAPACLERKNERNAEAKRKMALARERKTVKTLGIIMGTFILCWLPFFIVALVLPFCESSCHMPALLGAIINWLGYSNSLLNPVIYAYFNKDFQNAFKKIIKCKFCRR

[3] = target: 5-hydroxytryptamine receptor 2A (Rattus norvegicus, UniProt P14842); assay: Displacement of [3H]ketanserin from 5HT2A receptor in rat cortex
[4] = target: 5-hydroxytryptamine receptor 4 (Cavia porcellus, UniProt O70528); assay: Displacement of [3H]GR-113808 from 5HT4 receptor in guinea pig striatum
[5] = target: T3, Adrenergic receptor alpha-1 (Rattus norvegicus, UniProt P15823+P23944+P43140); assay: Displacement of [3H]prazosin from adrenergic alpha1 receptor in rat cortex
T3 sequence (P15823 whole entry): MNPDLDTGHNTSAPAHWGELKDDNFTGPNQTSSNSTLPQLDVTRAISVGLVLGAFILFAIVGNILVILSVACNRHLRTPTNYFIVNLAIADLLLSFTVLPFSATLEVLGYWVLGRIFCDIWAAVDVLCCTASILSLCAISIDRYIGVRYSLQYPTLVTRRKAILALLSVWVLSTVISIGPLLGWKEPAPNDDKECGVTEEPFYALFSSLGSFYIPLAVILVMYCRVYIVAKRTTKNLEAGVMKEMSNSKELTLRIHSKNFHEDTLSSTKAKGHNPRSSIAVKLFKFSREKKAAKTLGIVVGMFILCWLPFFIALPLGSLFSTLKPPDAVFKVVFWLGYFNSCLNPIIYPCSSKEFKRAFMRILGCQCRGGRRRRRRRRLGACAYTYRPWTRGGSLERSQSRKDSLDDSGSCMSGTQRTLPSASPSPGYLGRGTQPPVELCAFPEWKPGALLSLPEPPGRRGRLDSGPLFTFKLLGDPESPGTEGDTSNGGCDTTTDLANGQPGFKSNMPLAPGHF
T3 sequence (P23944 whole entry): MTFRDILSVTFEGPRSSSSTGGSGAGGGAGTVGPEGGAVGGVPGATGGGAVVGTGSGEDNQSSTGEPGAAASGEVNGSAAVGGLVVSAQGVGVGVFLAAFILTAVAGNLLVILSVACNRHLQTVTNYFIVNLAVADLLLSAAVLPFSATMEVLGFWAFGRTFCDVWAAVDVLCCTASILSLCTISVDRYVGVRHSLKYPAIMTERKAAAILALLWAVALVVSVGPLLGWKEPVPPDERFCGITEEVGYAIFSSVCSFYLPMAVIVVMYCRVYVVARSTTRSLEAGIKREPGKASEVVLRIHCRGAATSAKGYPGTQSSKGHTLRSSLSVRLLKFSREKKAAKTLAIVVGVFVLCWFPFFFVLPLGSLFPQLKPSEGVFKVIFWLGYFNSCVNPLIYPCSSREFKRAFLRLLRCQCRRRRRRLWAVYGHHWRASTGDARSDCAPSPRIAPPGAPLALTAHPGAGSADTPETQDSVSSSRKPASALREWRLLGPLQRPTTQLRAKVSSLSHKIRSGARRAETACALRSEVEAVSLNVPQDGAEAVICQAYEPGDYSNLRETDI
T3 sequence (P43140 whole entry): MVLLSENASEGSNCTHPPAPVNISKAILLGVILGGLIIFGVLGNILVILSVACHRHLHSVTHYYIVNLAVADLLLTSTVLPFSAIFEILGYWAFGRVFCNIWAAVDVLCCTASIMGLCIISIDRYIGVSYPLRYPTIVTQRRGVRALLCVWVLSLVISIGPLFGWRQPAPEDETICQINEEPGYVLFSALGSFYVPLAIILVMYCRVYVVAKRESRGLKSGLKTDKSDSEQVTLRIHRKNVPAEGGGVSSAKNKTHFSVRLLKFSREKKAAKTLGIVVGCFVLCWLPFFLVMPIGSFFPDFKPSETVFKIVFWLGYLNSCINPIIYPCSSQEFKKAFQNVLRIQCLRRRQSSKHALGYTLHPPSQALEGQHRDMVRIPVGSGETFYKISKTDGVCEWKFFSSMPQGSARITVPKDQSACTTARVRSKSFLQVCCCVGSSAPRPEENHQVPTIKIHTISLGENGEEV

[6] = target: T4, Alpha-2A adrenergic receptor (Rattus norvegicus, UniProt P22909); assay: Displacement of [3H]RX821002 from adrenergic alpha2 receptor in rat cortex
T4 sequence (P22909 whole entry): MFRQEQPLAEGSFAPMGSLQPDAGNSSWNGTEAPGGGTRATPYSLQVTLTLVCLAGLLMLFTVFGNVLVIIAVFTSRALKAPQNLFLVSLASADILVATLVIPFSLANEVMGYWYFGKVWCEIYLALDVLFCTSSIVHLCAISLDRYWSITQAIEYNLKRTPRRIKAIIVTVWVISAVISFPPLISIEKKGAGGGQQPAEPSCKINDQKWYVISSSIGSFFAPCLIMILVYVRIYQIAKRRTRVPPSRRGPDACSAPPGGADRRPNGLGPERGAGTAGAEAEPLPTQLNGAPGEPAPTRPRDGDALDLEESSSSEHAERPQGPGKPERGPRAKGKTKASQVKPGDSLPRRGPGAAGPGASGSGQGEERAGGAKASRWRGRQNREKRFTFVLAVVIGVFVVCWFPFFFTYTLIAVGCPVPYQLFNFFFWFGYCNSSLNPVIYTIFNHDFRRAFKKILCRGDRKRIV

D(1A) dopamine receptor = D(1A) dopamine receptor (Rattus norvegicus, UniProt P18901); assay: Displacement of [3H]SCH-23390 from dopamine D1 receptor in rat striatum
D(2) dopamine receptor = D(2) dopamine receptor (Rattus norvegicus, UniProt P61169); assay: Displacement of [3H]spiperone from dopamine D2 receptor in rat striatum
[7] = target: Muscarinic acetylcholine receptor; assay: Displacement of [3H]QNB from muscarinic receptor in rat cortex
[8] = target: T1, 5-hydroxytryptamine receptor 3A; assay: Displacement of [3H]zacopride from 5HT3 receptor in rat cortex

5-hydroxytryptamine receptor 4, sequence (O70528 whole entry): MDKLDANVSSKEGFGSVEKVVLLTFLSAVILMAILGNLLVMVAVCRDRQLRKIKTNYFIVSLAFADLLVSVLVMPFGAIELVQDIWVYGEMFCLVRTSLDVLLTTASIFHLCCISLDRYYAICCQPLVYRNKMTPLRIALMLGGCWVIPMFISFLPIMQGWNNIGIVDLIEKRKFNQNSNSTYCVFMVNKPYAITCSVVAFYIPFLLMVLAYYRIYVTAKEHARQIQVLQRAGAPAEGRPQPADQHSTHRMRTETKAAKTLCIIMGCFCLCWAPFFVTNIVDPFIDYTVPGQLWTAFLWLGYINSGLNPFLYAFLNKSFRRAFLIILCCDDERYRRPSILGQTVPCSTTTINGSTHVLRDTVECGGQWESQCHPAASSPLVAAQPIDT
5-hydroxytryptamine receptor 2A, sequence (P14842 whole entry): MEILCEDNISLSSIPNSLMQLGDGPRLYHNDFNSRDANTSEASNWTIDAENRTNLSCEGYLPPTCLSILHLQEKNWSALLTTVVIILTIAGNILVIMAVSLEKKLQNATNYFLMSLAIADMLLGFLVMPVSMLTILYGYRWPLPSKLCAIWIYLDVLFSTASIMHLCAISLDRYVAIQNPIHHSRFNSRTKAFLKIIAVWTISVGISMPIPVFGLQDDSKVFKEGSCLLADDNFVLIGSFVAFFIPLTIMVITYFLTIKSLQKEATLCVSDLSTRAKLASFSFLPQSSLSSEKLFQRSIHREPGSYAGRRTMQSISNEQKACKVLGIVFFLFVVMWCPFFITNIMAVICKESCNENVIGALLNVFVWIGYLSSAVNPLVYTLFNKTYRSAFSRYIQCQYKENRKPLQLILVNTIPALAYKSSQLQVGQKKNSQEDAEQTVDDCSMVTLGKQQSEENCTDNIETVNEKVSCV
D(1A) dopamine receptor, sequence (P18901 whole entry): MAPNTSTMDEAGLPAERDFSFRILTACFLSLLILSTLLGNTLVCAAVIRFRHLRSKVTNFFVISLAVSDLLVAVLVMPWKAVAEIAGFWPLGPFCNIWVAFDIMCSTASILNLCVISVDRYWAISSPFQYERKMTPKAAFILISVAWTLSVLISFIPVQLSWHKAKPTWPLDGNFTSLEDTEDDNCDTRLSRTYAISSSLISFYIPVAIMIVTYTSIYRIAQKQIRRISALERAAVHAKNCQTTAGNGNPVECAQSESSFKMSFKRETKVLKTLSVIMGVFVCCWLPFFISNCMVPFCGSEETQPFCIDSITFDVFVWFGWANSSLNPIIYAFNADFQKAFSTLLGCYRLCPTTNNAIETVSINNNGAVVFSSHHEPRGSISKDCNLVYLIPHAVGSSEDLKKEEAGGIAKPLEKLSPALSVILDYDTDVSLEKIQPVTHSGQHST
D(2) dopamine receptor, sequence (P61169 whole entry): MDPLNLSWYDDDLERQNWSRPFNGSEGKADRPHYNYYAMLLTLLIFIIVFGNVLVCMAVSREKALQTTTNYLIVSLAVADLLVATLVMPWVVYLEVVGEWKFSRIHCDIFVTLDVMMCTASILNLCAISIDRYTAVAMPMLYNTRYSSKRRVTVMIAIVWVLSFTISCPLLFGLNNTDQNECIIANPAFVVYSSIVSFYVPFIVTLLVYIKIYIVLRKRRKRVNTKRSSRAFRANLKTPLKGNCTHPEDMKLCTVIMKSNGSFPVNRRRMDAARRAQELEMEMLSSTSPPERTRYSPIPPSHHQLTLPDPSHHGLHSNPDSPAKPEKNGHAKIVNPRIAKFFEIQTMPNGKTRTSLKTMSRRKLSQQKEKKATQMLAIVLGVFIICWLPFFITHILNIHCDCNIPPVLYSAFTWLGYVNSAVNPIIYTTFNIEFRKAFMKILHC

SMILES: Cc1cccc2nc(N3CCN(CC(=O)NO)CC3)c3cccn3c12
Ki [1]: 3 nM

SMILES: N[C@H](CN1CCN(c2nc3cc(F)ccc3n3cccc23)CC1)C(=O)O
Ki [1]: 1.2 nM
Ki [2]: 480 nM
Ki [3]: > 10000 nM
Ki [4]: > 10000 nM
Ki [5]: > 10000 nM
Ki [6]: > 10000 nM
Ki (D(1A) dopamine receptor): > 10000 nM
Ki (D(2) dopamine receptor): > 10000 nM
Ki [7]: > 10000 nM

SMILES: O=C(O)CN1CCN(c2nc3cc(O)ccc3n3cccc23)CC1
Ki [1]: 2.1 nM

SMILES: c1ccc2nc(N3CCNCC3)ccc2c1 [QUIPAZINE]
Ki [1]: 0.96 nM
Ki [4]: > 10000 nM

Continued, values first:

Ki [1]: 246 nM
SMILES: CS(=O)(=O)NC(=O)CN1CCN(c2nc3cc(F)ccc3n3cccc23)CC1

Ki [8]: 0.7 nM
SMILES: CN1CCN(c2nc3cc(O)ccc3n3cccc23)CC1

Ki [1]: 79 nM
SMILES: Cc1cccc2nc(N3CCN(C(CO)c4ccccc4)CC3)c3cccn3c12 (centres undefined)

Ki [8]: 13 nM
SMILES: Fc1ccc2c(c1)nc(N1CCN(Cc3ccccc3)CC1)c1cccn12

Ki [1]: 127 nM
SMILES: O=c1[nH]nc(CN2CCN(c3nc4cc(F)ccc4n4cccc34)CC2)o1

Ki [1]: 44 nM
SMILES: Cc1cccc2nc(N3CCN(C(C(=O)O)c4ccccc4)CC3)c3cccn3c12 (centres undefined)

— ChEMBL document CHEMBL1136924 (J Med Chem, 2009)
